Results on three molecules are retold here after US20240246934A1, “QUINAZOLINE-BASED COMPOUND, COMPOSITION, AND APPLICATION OF QUINAZOLINE-BASED COMPOUND” (BEIJING SCITECH-MQ PHARMACEUTICALS LIMITED, priority 2021, published 2024).

A short description of data set [1]: Pharmacokinetics in SD rats, single intravenous injection and oral administration. It counts as in vivo, SD rat. As to conditions: for AUC(0-inf) / AUC(0-t) / Vd / half-life / bioavailability / Cmax / Tmax: SD, rat, whole blood; for bioavailability: PO 10 mg/kg vs IV 3 mg/kg, read-out: F % (bioavailability). Put shortly:
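SD rats received a single IV or oral dose of a solution formulation; the oral group was fasted overnight (>12 hrs) and fed 2 hrs post-dose, the IV group not fasted. Blood and brain were sampled at set times and analysed by LC/MS; CL, Vd, T1/2, Cmax, Tmax, AUC, MRT and F % come from plasma concentration-time data.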

Data set [2] has as its system Ba/F3 ERBB2 A775_G776insYVMA. Kind of data set: Efficacy in nude mouse tumor-bearing model of Ba/F3 ERBB2 A775_G776insYVMA. It is filed as in vivo, BALB/c nude mice. The settings on record: 30 mg/kg. On the procedure:
In this assay, some compounds of the application were orally administered to a nude mouse tumor-bearing model of Ba/F3 ERBB2 A775_G776insYVMA to study the effect of the compounds of the application on tumor growth.
Preparation of the assay compound: an appropriate weight of the compound to be assayed was weighed, and completely dissolved in an appropriate volume of vehicle (DMSO). The mixture was vortexed or sonicated. Then an appropriate amount of Solutol was added and mixed well. Finally, sterilized drinking water was added and the mixture was mixed by stirring or vortexing to obtain a homogeneous solution or suspension.
Method: All the assays were authorized and agreed by the Animal Welfare Committee. Ba/F3 ERBB2 A775_G776insYVMA in a logarithmic growth period was inoculated subcutaneously into the right back of immunodeficient nude mice (BALB/c nude, female, 6-7 weeks of age, body weight 18±2 g) with 4×10^6 cells/rat. After the tumor grew to 150-200 mm^3, the animals were randomly divided into a treatment group and a control group. For the treatment group, a solution of each assay compound was given, and for the control group, a vehicle solution without the assay compound was given. Both of the treatment group and the control group were administered once a day for about 2 weeks. The dose of each assay article was 30 mg/kg (in terms of effective compound concentration), and the assay compounds were all prepared freshly for use. During the assay, the diameter of loaded tumors was measured twice a week, and the mice were weighed at the same time. The tumor volume (TV) was calculated by the formula: TV=½×a×b^2, where a and b denote length and width, respectively. Relative tumor volume (RTV) was calculated based on the measured results by the formula: RTV=Vt/V0, where V0 is the tumor volume measured at grouping and administration and Vt is the tumor volume at each measurement. The evaluation index of antitumor activity was the relative tumor proliferation rate T/C (%) calculated by the formula: T/C (%)=(TRTV/CRTV)×100%, TRTV: RTV of the administration group; CRTV: RTV of the control group. T and C denote the average tumor volume at a certain time point in the administration group and the control group, respectively.

A further data set has as its system NCI-N87 cells. The data set can be described thus: Inhibition of cell proliferation, CTG method, NCI-N87. It counts as cell-based. As to conditions: Homo sapiens, 72 hours, read-out: hNCI-N87 IC50. From the text: The present application examined the in vitro anti-proliferative activity of the compounds of the present disclosure against in vitro cultured BT474, NCI-N87, Ba/F3-EGFR-VIII and Ba/F3 HER2 A775_G776insYVMA and Ba/F3 EGFR D770_N771insSVD cell lines by CTG method.
Reagents and consumables: RPMI1640 (ThermoFisher, Cat. No. C11875500BT); fetal bovine serum (Hyclone, Cat. No. SV30087.03); 0.25% trypsin-EDTA (ThermoFisher, Cat. No. 25200-072); penicillin-streptomycin (Hyclone, Cat. No. SV30010); DMSO (Amresco, Cat. No. 0231-500ML); CTG assay kit (Promega, Cat. No. G924C); 96-well plate (Corning, Cat. No. 3603); multifunctional plate reader (Perkin Elmer, Cat. No. Envision)
Cell lines: BT474 (from the cell bank of Chinese Academy of Sciences), NCI-N87 (from ATCC), Ba/F3-EGFR-VIII, Ba/F3 HER2 A775_G776insYVMA and Ba/F3 EGFR D770_N771insSVD (all from KYinno Biotechnology (Beijing) Co., Ltd.); all of the above cells were cultured with RPMI1640 medium containing 10% fetal bovine serum, 100 U/mL penicillin, and 100 μg/mL streptomycin in the culture process.
1. The assay compound was dissolved with DMSO to form a stock solution and a gradient dilution was performed, followed by dilution with the corresponding medium to obtain a solution with 5-fold working concentration.
2. Cells in logarithmic growth phase were adjusted to specific cell densities by dilution with culture medium, and 80 μL of cell suspension was added to a 96-well plate, such that plating densities of cells of BT474, NCI-N87, Ba/F3-EGFR-VIII, Ba/F3 HER2 A775_G776insYVMA and Ba/F3 EGFR D770_N771insSVD were all 3000 cells/well. The cells of Ba/F3-EGFR-VIII, Ba/F3 HER2 A775_G776insYVMA and Ba/F3 EGFR D770_N771insSVD were used directly in the next step (treatment with compound), whereas the BT474 and NCI-N87 needed to be cultured overnight in a 37° C., 5% carbon dioxide gas incubator to adhere to the wall, and then treated with compounds.
3. 20 μL of compound solution was added to each well of the 96-well plate that had been inoculated with cells. The highest concentration of the assayed compound was 10 μM, 4-fold serial dilution, a total of 9 concentrations, and duplicate wells. A control group without compound was also set up.
4. The cells were cultured for another 72 hours, and then cell viability was detected by CTG assay kit. Signal values were read with a multifunctional plate reader (Perkin Elmer). GraphPad Prism software was used to create a dose-response curve and IC50 was calculated.

[3] abbreviates: NA: Exposure was too low to be counted.
The mark [4] stands for this setting: PO 10 mg/kg, NA: Exposure was too low to be counted.

In data set [1] (IV 3 mg/kg), `CCN1CCC[C@@H]1/C=C/C(=O)Nc1ccc2ncnc(Nc3ccc(OCc4ccccn4)c(Cl)c3)c2c1OC` [Example 29, (R,E)-N-(4-((3-chloro-4-(pyridin-2-ylmethoxy)phenyl)amino)-5-methoxyquinazolin-6-yl)-3-(1-ethylpyrrolidin-2-yl)acrylamide] had a Cl_obs of 54.0 ± 7.4 mL/min/kg, an AUC(0-inf) of 938 ± 134 ng·h/mL, an area under the curve AUC(0-t) of 914 ± 129 ng·h/mL and a Vd of 22.7 ± 2.4 L/kg. Further, the half-life in data set [1] (IV 3 mg/kg) is 4.86 ± 0.23 h. Further, the bioavailability in data set [1] (setting [3]) was determined as 36.3 ± 3.4%. Also, in data set [1] (setting [4]), the AUC(0-inf) came out at 1130 ± 106 ng·h/mL, the AUC(0-t) was 1100 ± 107 ng·h/mL, the peak concentration (Cmax) came to 95.3 ± 16.5 ng/mL and the Tmax turned out to be 3.33 ± 3.21 h. Besides, the half-life in data set [1] (setting [4]) is 4.63 ± 0.26 h. Besides, the “T/C (%)” value in data set [2] (QD×11, PO, day 11) is recorded as 18.7%.

In data set [1] (IV 3 mg/kg), `COCCCOc1c(NC(=O)/C=C/[C@H]2CCCN2C)ccc2ncnc(Nc3ccc(OCc4ccccn4)c(Cl)c3)c12` [Example 9, (R,E)-N-(4-((3-chloro-4-(pyridin-2-ylmethoxy)phenyl)amino)-5-(3-methoxypropoxy)quinazolin-6-yl)-3-(1-methylpyrrolidin-2-yl)acrylamide] registered a Cl_obs of 53.0 ± 6.7 mL/min/kg, an AUC(0-inf) of 955 ± 130 ng·h/mL, an AUC(0-t) of 949 ± 128 ng·h/mL and a Vd of 18 ± 2.3 L/kg. This molecule gave a half-life in data set [1] (IV 3 mg/kg) of 3.94 ± 0.18 h. Also, in data set [1] (setting [3]), the bioavailability turned out to be 34.9 ± 12.6%. Further, in data set [1] (setting [4]), the AUC(0-inf) was found to be 1110 ± 403 ng·h/mL, the AUC(0-t) was determined as 1100 ± 406 ng·h/mL, the highest concentration (Cmax) was 80.3 ± 30.5 ng/mL and the time of peak concentration (Tmax) is 5 ± 3.46 h. This molecule also gave a half-life in data set [1] (setting [4]) of 4.13 ± 0.57 h. The “T/C (%)” value in data set [2] (QD×15, PO, day 15) came out at 3.85%.

With `COc1c(NC(=O)/C=C/[C@H]2CCCN2C)ccc2ncnc(Nc3ccc(OCc4ccccn4)c(Cl)c3)c12` [Example 4, (R,E)-N-(4-((3-chloro-4-(pyridin-2-ylmethoxy)phenyl)amino)-5-methoxyquinazolin-6-yl)-3-(1-methylpyrrolidin-2-yl)acrylamide], the half-maximal inhibitory concentration (IC50) with NCI-N87 cells is < 1 nM. In data set [1] (IV 3 mg/kg), this molecule registered a Cl_obs of 52.1 ± 9.3 mL/min/kg, a total exposure AUC(0-inf) of 979 ± 161 ng·h/mL, an exposure AUC(0-t) of 968 ± 156 ng·h/mL and a Vd of 20.2 ± 2.6 L/kg. Also, in data set [1] (IV 3 mg/kg), the half-life was 4.5 ± 0.21 h. In addition, the bioavailability in data set [1] (setting [3]) stood at 27.6 ± 6.8%. For the same molecule, in data set [1] (setting [4]), the total exposure AUC(0-inf) amounted to 902 ± 223 ng·h/mL, the area under the curve AUC(0-t) was determined as 888 ± 221 ng·h/mL, the peak level (Cmax) was 65.7 ± 19.9 ng/mL and the Tmax was determined as 5.33 ± 2.89 h. The molecule also had a half-life in data set [1] (setting [4]) of 3.69 ± 0.31 h. The “T/C (%)” value in data set [2] (QD×14, PO, day 14) stood at 2.6%.

In general, AUC(0-inf) refers to the area under the concentration-time curve extrapolated to infinity. Usually AUC(0-t) stands for exposure summed from dosing to a finite time, without extrapolation to infinity. Low readings indicate low exposure, high ones high exposure. As usually defined, the half-life is the time needed for the level to fall by half in the phase considered. Low values mean rapid decline, high ones slow decline. Usually bioavailability stands for the share of a dose that reaches the circulation, judged against a reference dose that is usually intravenous. A word on the Cmax: it is the highest concentration seen after dosing. A word on the Tmax: it is the time at which the peak concentration occurs. Broadly, the IC50 is the concentration that inhibits the measured activity by half.
